Ki data for twelve compounds are collected here from the Kinase Knowledgebase extract (Sharma et al. 2016).

The assay has as its target CDK2 (UniProt P24941). Description: Enzyme Assay.
Compound `COc1ccccc1Nc1ncc(C)c(-c2c[nH]c(C(=O)N[C@H](CO)c3ccccc3)c2)n1` had an inhibition constant Ki of 1000 to 20000 nM. The value for `Cc1cnc(NC2(CO)CC2)nc1-c1c[nH]c(C(=O)N[C@H](CO)c2ccccc2)c1` was 100 to 1000 nM; that for `Cc1cnc(Nc2ccccc2)nc1-c1c[nH]c(C(=O)NC(CO)c2cccc(C(F)(F)F)c2)c1` (configuration not stated) was 100 to 1000 nM. Take `Cc1cnc(N[C@H]2CC[C@H](O)CC2)nc1-c1c[nH]c(C(=O)N[C@H](CO)c2ccccc2)c1`: the inhibition constant (Ki) was less than 100 nM.

The compound `CCNc1ncc(C)c(-c2c[nH]c(C(=O)N[C@H](CO)c3ccccc3)c2)n1` displayed an inhibition constant (Ki) of 1000 to 20000 nM.

On to `Cc1cnc(Nc2cccc(C(F)(F)F)c2)nc1-c1c[nH]c(C(=O)N[C@H](CO)c2ccccc2)c1`, for which the inhibition constant Ki was less than 100 nM. The compound `Cc1cnc(NC2CC2)nc1-c1c[nH]c(C(=O)N[C@H](CO)c2ccccc2)c1` returned a Ki of 100 to 1000 nM. As to `Cc1cnc(NCC2CC2)nc1-c1c[nH]c(C(=O)N[C@H](CO)c2ccccc2)c1`, the inhibitory constant (Ki) fell in the range of 1000 to 20000 nM. Regarding `Cc1cnc(N[C@@H](CO)c2ccccc2)nc1-c1c[nH]c(C(=O)N[C@H](CO)c2ccccc2)c1`, the inhibition constant (Ki) was 100 to 1000 nM. Take `Cc1cnc(Nc2cccc(F)c2)nc1-c1c[nH]c(C(=O)NC(CO)c2cccc(C(F)(F)F)c2)c1` (configuration not stated): the inhibition constant (Ki) lay within 100 to 1000 nM. In the case of `Cc1cnc(Nc2ccc(OCc3ccccc3)cc2)nc1-c1c[nH]c(C(=O)N[C@H](CO)c2ccccc2)c1`, the inhibition constant (Ki) is less than 100 nM. The figure for `Cc1cnc(NCc2ccccc2)nc1-c1c[nH]c(C(=O)N[C@H](CO)c2ccccc2)c1` is 100 to 1000 nM.

As usually defined, the Ki is the dissociation constant of the complex between target and ligand, obtained from inhibition or displacement. Low values mean higher affinity, high ones lower affinity.
